Experiments:
Format in all cases: cell-based, human
Rif1 foci [1] = assay: UV-induced Rif1 foci by indirect immunofluorescence; details: aphidicolin after the UV irradiation
Procedure: (§1) For IR treatment, cells were exposed to gamma(λ)-irradiation using a Cs^137 source at a rate of 7.7 Gray/min in 6 cm dishes. For UV radiation, cells were washed with PBS and exposed to 25 J/m^2 UV (265 nm) radiation in a Stratalinker (Stratagene) without a lid. After UV radiation, cells were incubated in media until harvest. For immunoblotting as described in FIG. 2B, cells were harvested 1 hr post-UV. MMS and etoposide (0.01% w/v and 50 μg/ml, respectively) were added to the media and cells were incubated for 1 hr before harvesting.
(§2) To stain cells for immunofluorescence, tissue culture cells plated on dishes with coverslips were washed twice with PBS, fixed with 2% paraformaldehyde in PBS (stored at −20° C.) for 10 minutes at room temperature (RT), washed twice with PBS and permeabilized with 0.5% NP-40 in PBS for 10 minutes at RT and washed three times with PBS. Cells were processed immediately or stored at 4° C. wrapped in PBS with sodium azide. […]

53BP1 foci = 53BP1 foci by indirect immunofluorescence after IR or UV; details: aphidicolin after the UV irradiation
Procedure: as §1, §2

Rif1 foci [2] = assay: Rif1 foci after drug treatment, immunofluorescence; details: MMS 0.01% w/v, etoposide 50 μg/ml, 1 hr; hydroxyurea prolonged incubation
Procedure: as §1
To stain cells for immunofluorescence, tissue culture cells plated on dishes with coverslips were washed twice with PBS, fixed with 2% paraformaldehyde in PBS (stored at −20° C.) for 10 minutes at room temperature (RT), washed twice with PBS and permeabilized with 0.5% NP-40 in PBS for 10 minutes at RT and washed three times with PBS. Cells were processed immediately or stored at 4° C. wrapped in PBS with sodium azide. Coverslips were placed on parafilm in a humidified tray and blocked with PBG (0.2% (w/v) cold water fish gelatin (Sigma), 0.5% (w/v) BSA (Sigma) in PBS (stored at −20° C.) for 30 minutes at RT. Cells were then incubated with primary antibody diluted in PBG for 3 hours at RT, washed three times with PBG for 5 minutes at RT, incubated with secondary antibody diluted 1:100 in PBG for 40 minutes at RT, washed three times with PBG for 5 minutes at RT (with the last wash containing DAPI ([…]). Coverslips were then washed twice with PBS and mounted on glass slides in mounting media and sealed with nail polish.

Row | Compound | Rif1 foci after UV (Rif1 foci [1]) | 53BP1 foci after UV (53BP1 foci) | Rif1 foci formation after treatment (Rif1 foci [2])
1 | C[C@@]1(CO)[C@H](O)CC[C@@]2(C)[C@H]1CC[C@H]1C[C@@H]3C[C@@]12CC[C@]3(O)CO [Aphidicolin] | fail to form Rif1 foci after UV | still detectable | –
2 | NC(=O)NO [hydroxyurea] | – | – | forms foci
3 | COS(C)(=O)=O [MMS] | – | – | forms foci
4 | COc1cc([C@@H]2c3cc4c(cc3[C@@H](O[C@@H]3O[C@@H]5CO[C@@H](C)O[C@H]5[C@H](O)[C@H]3O)[C@H]3COC(=O)[C@H]23)OCO4)cc(OC)c1O [etoposide] | – | – | forms foci

From patent US7507806B2, “Nucleic acid sequences of human Rif1” (The Rockefeller University, priority 2004, dated 2009)
